Several values for one entry are separate records, joined by “and”; a condition that tells them apart may be missing. Equal values may be shown once. Read-outs that look alike come from different tables or passages of the source. One block for each compound: values may come before it.
What was measured:
Type in all cases: cell-based, menschlich
[1] = test system: MDA-MB-231-Mammacarcinomzellen; experiment: Flow-cytometric analysis of cell cycle distribution
Source text: (§1) Die cytostatische Wirkung der erfindungsgemäßen Verbindungen wurde an zwei verschiedenen menschlichen Mammacarcinomzellinien in vitro bestimmt (M. Goldbrunner et al., J.Med.Chem. 1997,40,3525). Es handelt sich dabei um die hormonunabhängige MDA-MB-231-Zellinie und die estrogensensitive MCF-7-Linie. Die MDA-MB-231-Zellen wurden auch für die durchflusszytometrischen Analysen zur Zellzyklusverteilung herangezogen (M.J.J. Jaroszeski und R. Heller, Flow Cytometry Protocols, Humana Press, 1998, Totowa New Jersey). Besonders überraschend war, dass diese synthetischen Verbindungen häufig bereits im Konzentrationsbereich von 10 bis 100 nanomolar das Wachstum von menschlichen Tumorzellen stark hemmen, obwohl sie nur ein relativ niedriges Molekulargewicht aufweisen (MG ~ 320 - 500) (Tabelle 2 und 3, Abb. 2). Potente Therapeutika, die ebenfalls in den Zellzyklus eingreifen, besitzen Molekulargewichte im Bereich von 825 (Vincristin als Base) und 850 (Paclitaxel).

[2] = test system: MCF-7-Mammacarcinomzellen; experiment: Growth inhibition of MCF-7 mammary carcinoma cells in vitro (cytostatic effect); conditions: MCF-7 cells, read-out: IC50 Hemmwirkung auf das Wachstum
Source text: as §1

[3] = test system: MDA-MB-231-Brustkrebszellen; experiment: Growth inhibition of MDA-MB-231 breast cancer cells in vitro (cytostatic effect); conditions: MDA-MB-231 cells, read-out: IC50 Hemmwirkung auf das Wachstum
Source text: as §1

IC50 ([3]; Homo sapiens): 280 nM
Compound: COc1ccc(-c2[nH]c3ccc(C)cc3c2C=C(C#N)C#N)cc1 [Verbindung 1, [2-(4-Methoxyphenyl)-5-methyl-indol-3-yl]-methylenpropandinitril]
Debris % ([1]; Konz. 0.5 µM): 7.8%
G1/G0 % ([1]; Konz. 0.5 µM): 41.0%
G2/M % ([1]; Konz. 0.5 µM): 32.0%
S % ([1]; Konz. 0.5 µM): 19.2%
Debris % ([1]; Konz. 1.0 µM): 16.4%
G1/G0 % ([1]; Konz. 1.0 µM): 16.9%
G2/M % ([1]; Konz. 1.0 µM): 45.4%
S % ([1]; Konz. 1.0 µM): 21.3%
Debris % ([1]; Konz. 5.0 µM): 6.4%
G1/G0 % ([1]; Konz. 5.0 µM): 9.8%
G2/M % ([1]; Konz. 5.0 µM): 57.7%
S % ([1]; Konz. 5.0 µM): 26.1%
IC50 ([2]; Homo sapiens, MCF7): 200 nM

IC50 ([3]; Homo sapiens): 13 nM
Compound: CCCCc1ccc2[nH]c(-c3ccc(OC)cc3)c(C=C(C#N)C#N)c2c1 [Verbindung 7, [5-n-Butyl-2-(4-methoxyphenyl)-indol-3-yl]-methylenpropandinitril]
IC50 ([2]; Homo sapiens, MCF7): 13 nM

IC50 [3]: 56 nM
Compound: CCCCc1ccc2[nH]c(-c3ccc(C(F)(F)F)cc3)c(C=C(C#N)C#N)c2c1 [Verbindung 13, {5-Butyl-2-[4-(trifluormethyl)-phenyl]-indol-3-yl}methylenpropandinitril]
Debris % ([1]; Konz. 0.01 µM): 2.9%
G1/G0 % ([1]; Konz. 0.01 µM): 52.7%
G2/M % ([1]; Konz. 0.01 µM): 22.1%
S % ([1]; Konz. 0.01 µM): 22.9%
Debris % ([1]; Konz. 0.05 µM): 3.0%
G1/G0 % ([1]; Konz. 0.05 µM): 52.3%
G2/M % ([1]; Konz. 0.05 µM): 22.1%
S % ([1]; Konz. 0.05 µM): 22.6%
Debris % ([1]; Konz. 0.1 µM): 13.3%
G1/G0 % ([1]; Konz. 0.1 µM): 52.6%
G2/M % ([1]; Konz. 0.1 µM): 12.2%
S % ([1]; Konz. 0.1 µM): 22.3%
Debris % ([1]; Konz. 0.5 µM): 5.5%
G1/G0 % ([1]; Konz. 0.5 µM): 5.4%
G2/M % ([1]; Konz. 0.5 µM): 76.3%
S % ([1]; Konz. 0.5 µM): 9.2%

IC50 ([3]; Homo sapiens): 1000 nM
Compound: COc1ccc(-c2[nH]c3cc(OC)ccc3c2C=NNc2ccccc2)cc1 [Verbindung 21, 6-Methoxy-2-(4-methoxyphenyl)-indol-3-carbaldehyd-phenylhydrazon]

IC50 [3]: 78 nM
Compound: CCCCCc1ccc2[nH]c(-c3ccc(C(F)(F)F)cc3)c(C=C(C#N)C#N)c2c1 [Verbindung 16, {5-Pentyl-2-[4-(trifluormethyl)-phenyl]-indol-3-yl}-methylenepropandinitril]

IC50 [3]: 260 nM
Compound: CCCCc1ccc2[nH]c(-c3ccc(C(F)(F)F)cc3)c(C=NNC(=O)c3ccccn3)c2c1 [Verbindung 27, 5-n-Butyl-2-[4-(trifluormethyl)-phenyl]-indol-3-carbaldehyd-picolinylhydrazon]

IC50 ([3]; Homo sapiens): 53 nM
Compound: CCCCc1ccc2[nH]c(-c3ccc(CC)cc3)c(C=NNCc3cccnc3)c2c1 [Verbindung 26, 5-Butyl-2-(4-ethylphenyl)-indol-3-carbaldehyd-nicotinylhydrazon]
Debris % ([1]; Konz. 0.01 µM): 3.2%
G1/G0 % ([1]; Konz. 0.01 µM): 51.0%
G2/M % ([1]; Konz. 0.01 µM): 26.3%
S % ([1]; Konz. 0.01 µM): 20.2%
Debris % ([1]; Konz. 0.05 µM): 2.8%
G1/G0 % ([1]; Konz. 0.05 µM): 51.3%
G2/M % ([1]; Konz. 0.05 µM): 22.9%
S % ([1]; Konz. 0.05 µM): 23.7%
Debris % ([1]; Konz. 0.1 µM): 3.4%
G1/G0 % ([1]; Konz. 0.1 µM): 49.2%
G2/M % ([1]; Konz. 0.1 µM): 25.5%
S % ([1]; Konz. 0.1 µM): 23.0%
Debris % ([1]; Konz. 0.5 µM): 12.2%
G1/G0 % ([1]; Konz. 0.5 µM): 9.6%
G2/M % ([1]; Konz. 0.5 µM): 66.9%
S % ([1]; Konz. 0.5 µM): 11.4%

IC50 ([3]; Homo sapiens): 42 nM
Compound: CCCCCc1ccc2[nH]c(-c3ccc(OC)cc3)c(C=C(C#N)C#N)c2c1 [Verbindung 8, [2-(4-Methoxyphenyl)-5-n-pentyl-indol-3-yl]-methylenpropandinitril]
IC50 ([2]; Homo sapiens, MCF7): 76 nM

IC50 ([3]; Homo sapiens): 30 nM
Compound: CCCCc1ccc2[nH]c(-c3ccc(OC)cc3)c(C=NN3C(=O)c4ccccc4C3=O)c2c1 [Verbindung 29, N-{[5-n-Butyl-2(4-methoxyphenyl)-indol-3-yl]methylenamino}-phthalimid]

IC50 ([3]; Homo sapiens): 65 nM
Compound: CCCCc1ccc2[nH]c(-c3ccc(C)cc3)c(C=C(C#N)C#N)c2c1 [Verbindung 14, [5-Butyl-2-(4-methylphenyl)-indol-3-yl]-methylenpropandinitril]
Debris % ([1]; Konz. 0.05 µM): 2.5%
G1/G0 % ([1]; Konz. 0.05 µM): 52.7%
G2/M % ([1]; Konz. 0.05 µM): 22.4%
S % ([1]; Konz. 0.05 µM): 24.0%
Debris % ([1]; Konz. 0.1 µM): 3.3%
G1/G0 % ([1]; Konz. 0.1 µM): 50.6%
G2/M % ([1]; Konz. 0.1 µM): 21.9%
S % ([1]; Konz. 0.1 µM): 24.6%
Debris % ([1]; Konz. 0.5 µM): 24.5%
G1/G0 % ([1]; Konz. 0.5 µM): 16.7%
G2/M % ([1]; Konz. 0.5 µM): 41.5%
S % ([1]; Konz. 0.5 µM): 15.6%
Debris % ([1]; Konz. 1.0 µM): 19.1%
G1/G0 % ([1]; Konz. 1.0 µM): 6.1%
G2/M % ([1]; Konz. 1.0 µM): 64.2%
S % ([1]; Konz. 1.0 µM): 10.3%

IC50 [3]: 90 nM
Compound: CCCCc1ccc2[nH]c(-c3ccc(OC)cc3)c(C=NNC(=O)c3ccc(Cl)cc3)c2c1 [Verbindung 23, 5-n-Butyl-2-(4-methoxyphenyl)-indol-3-carbaldehyd-(4-chlorbenzoyl)hydrazon]

IC50 [3]: 400 nM
Compound: COc1ccc(-c2[nH]c3ccc(F)cc3c2C=C(C#N)C#N)cc1 [Verbindung 4, [5-Fluor-2-(4-methoxyphenyl)-indol-3-yl]methylenpropandinitril]

Second part, the compound before the results:

Compound: CCCCCCc1ccc2[nH]c(-c3ccc(C(F)(F)F)cc3)c(C=C(C#N)C#N)c2c1 [Verbindung 17, {5-Hexyl-2-[4-(trifluormethyl)phenyl]-indol-3yl}-methylenpropandinitril]
IC50 [3]: 150 nM

Compound: COc1cccc(-c2[nH]c3ccc(OC)cc3c2C=C(C#N)C#N)c1 [Verbindung 12, [5-Methoxy-2-(3-methoxyphenyl)-indol-3-yl]-methylenpropandinitril]
IC50 ([3]; Homo sapiens): 970 nM

Compound: CCCCc1ccc2[nH]c(-c3ccc(OC)cc3)c(C=C(C#N)C(=O)O)c2c1 [Verbindung 18, 3-[5-n-Butyl-2-(4-methoxyphenyl-)indol-3-yl]-2-cyanoacrylsäure]
IC50 [3]: 200 nM

Compound: COc1ccc(-c2[nH]c3ccccc3c2C=C(C#N)C#N)cc1 [Verbindung 11, [2-(4-Methoxyphenyl)-indol-3-yl]-methylenpropandinitril]
IC50 ([3]; Homo sapiens): 720 nM

Compound: CCCCc1ccc2[nH]c(-c3ccc(C(F)(F)F)cc3)c(C=NNC(N)=O)c2c1 [Verbindung 30, 5-Butyl-2-[4-(trifluormethyl)-phenyl]-indol-3-carbaldehyd-semicarbazon]
IC50 [3]: 850 nM

Compound: COc1ccc2c(C=C(C#N)C#N)c(-c3ccc(C)cc3)[nH]c2c1 [Verbindung 3, [6-Methoxy-2-(4-methylphenyl)-indol-3-yl]-methylenpropandinitril]
IC50 ([2]; Homo sapiens, MCF7): 250 nM
IC50 ([3]; Homo sapiens): 180 nM

Compound: CCCCc1ccc2[nH]c(-c3ccc(CC)cc3)c(C=C(C#N)C#N)c2c1 [Verbindung 15, [5-Butyl-2-(4-ethylphenyl)-indol-3-yl]-methylenpropandinitril]
Debris % ([1]; Konz. 0.01 µM): 5.0%
G1/G0 % ([1]; Konz. 0.01 µM): 53.6%
G2/M % ([1]; Konz. 0.01 µM): 21.8%
S % ([1]; Konz. 0.01 µM): 20.0%
Debris % ([1]; Konz. 0.05 µM): 6.6%
G1/G0 % ([1]; Konz. 0.05 µM): 50.3%
G2/M % ([1]; Konz. 0.05 µM): 19.8%
S % ([1]; Konz. 0.05 µM): 24.2%
Debris % ([1]; Konz. 0.1 µM): 8.6%
G1/G0 % ([1]; Konz. 0.1 µM): 51.8%
G2/M % ([1]; Konz. 0.1 µM): 18.9%
S % ([1]; Konz. 0.1 µM): 20.7%
Debris % ([1]; Konz. 0.5 µM): 23.2%
G1/G0 % ([1]; Konz. 0.5 µM): 5.7%
G2/M % ([1]; Konz. 0.5 µM): 62.8%
S % ([1]; Konz. 0.5 µM): 6.3%
IC50 ([3]; Homo sapiens): 79 nM

Compound: COc1ccc(-c2[nH]c3cc(OC)ccc3c2C=C(C#N)C#N)cc1 [Verbindung 10, [6-Methoxy-2-(4-methoxyphenyl)-indol-3-yl]methylenpropandinitril]
IC50 ([3]; Homo sapiens): 260 nM

Compound: COc1ccc(-c2[nH]c3cc(C(C)C)ccc3c2C=C(C#N)C#N)cc1 [Verbindung 6, [6-Isopropyl-2-(4-methoxyphenyl)-indol-3-yl]methylenpropandinitril]
IC50 ([2]; Homo sapiens, MCF7): 310 nM
IC50 ([3]; Homo sapiens): 210 nM

Compound: COc1ccc(-c2[nH]c3cc(Cl)c(C)cc3c2C=C(C#N)C#N)cc1 [Verbindung 2, [6-Chlor-2-(4-methoxyphenyl)-5-methyl-indol-3-yl]-methylenpropandinitril]
IC50 [2]: 200 nM
IC50 [3]: 75 nM

Compound: CCCc1ccc2[nH]c(-c3ccc(OC)cc3)c(C=C(C#N)C#N)c2c1 [Verbindung 5, [2-(4-Methoxyphenyl)-5-n-propyl-indol-3-yl]-methylenpropandinitril]
IC50 ([3]; Homo sapiens): 83 nM

Compound: CC[C@]1(O)C[C@H]2CN(CCc3c([nH]c4ccccc34)[C@@](C(=O)OC)(c3cc4c(cc3OC)N(C=O)[C@H]3[C@@](O)(C(=O)OC)[C@H](OC(C)=O)[C@]5(CC)C=CCN6CC[C@]43[C@@H]65)C2)C1 [Vincr., Vincristin, reference compound]
G1/G0 % ([1]; Konz. 0.1 µM): 6.2% and 4.5% and 5.1% and 9.3% and 10.2% and 11.4% and 8.1%
G2/M % ([1]; Konz. 0.1 µM): 67.0% and 76.0% and 60.7% and 53.8% and 61.0% and 48.4% and 54.1%

Compound: CCCCc1ccc2[nH]c(-c3ccc(OC)cc3)c(C=NNC(=O)c3ccccc3)c2c1 [Verbindung 22, 5-n-Butyl-2-(4-methoxyphenyl)-indol-3-carbaldehyd-benzoylhydrazon]
IC50 ([2]; Homo sapiens, MCF7): 130 nM
IC50 ([3]; Homo sapiens): 32 nM

Compound: CCCCc1ccc2[nH]c(-c3ccc(C(F)(F)F)cc3)c(C=NNC(=O)c3ccncc3)c2c1 [Verbindung 28, 5-Butyl-2-[4-(trifluormethyl)-phenyl]-indol-3-carbaldehyd-isonicotinylhydrazon]
Debris % ([1]; Konz. 0.05 µM): 3.5%
G1/G0 % ([1]; Konz. 0.05 µM): 49.6%
G2/M % ([1]; Konz. 0.05 µM): 24.2%
S % ([1]; Konz. 0.05 µM): 25.6%
Debris % ([1]; Konz. 0.1 µM): 3.8%
G1/G0 % ([1]; Konz. 0.1 µM): 49.3%
G2/M % ([1]; Konz. 0.1 µM): 24.0%
S % ([1]; Konz. 0.1 µM): 23.7%
Debris % ([1]; Konz. 0.5 µM): 16.7%
G1/G0 % ([1]; Konz. 0.5 µM): 16.9%
G2/M % ([1]; Konz. 0.5 µM): 50.2%
S % ([1]; Konz. 0.5 µM): 15.0%
IC50 [3]: 94 nM

Reference: patent EP1746087A1, “Derivates of 3-indolylmethylene having cytostatic properties” (Universitaet Regensburg, priority 2005, dated 2007)
